This note sets out measurements from patent publication US20250163016A1, “PYRIDINE DERIVATIVE, PREPARATION METHOD THEREFOR AND USE THEREOF” (CHENGDU EASTON BIOPHARMACEUTICALS CO., LTD., priority 2022, published 2025).

The test system of one series is Kasumi-1 cells. Kind of series: Kasumi-1 cell proliferation inhibition test (Celltiter GLO). The format is cell-based. As to conditions: Homo sapiens, 168 h, Kasumi-1, 7 days culture. Here is the method:
Research had confirmed that LSD1 played a crucial role in the occurrence process of various types of cancers, including small cell lung cancer (SCLC) and acute myeloid leukemia (AML). Therefore, a human acute myeloid leukemia (Kasumi-1) cell line was used to determine the ATP content in cells at different drug concentrations using a Celltiter GLO assay kit, the cell activity was reflected by luminescence intensity, and IC50 values of different compounds on Kasumi-1 cells were calculated using inhibition rates. The inhibitory effects of the compounds in the present application on the proliferation of Kasumi-1 cells were studied to evaluate the anti-tumor efficacy of the tested compounds at the cellular level.
• Day 1 Cells were seeded into the 384-well cell culture plate and placed in a 37° C. 5% CO2 cell incubator to be cultured overnight. • Day 0 The compound to be tested was prepared into a 10 mM mother liquid using DMSO, starting from […], diluted by 3 folds, with 10 concentration points and double duplicate wells. A diluted compound was added into the 384-well cell culture plate and placed in a 37° C. 5% CO2 cell incubator to be cultured for 7 days. The concentration of the DMSO in a cell culture system was 0.1 vol %. • Day 7 Celltiter GLO was added into the 384-well cell culture plate according to a volume ratio of culture system:Celltiter GLO=1:1, light-shielded oscillation was carried out on a plate oscillator for 3 min, then the cell culture plate was placed at the room temperature for 30 min with light shielded, and the plate was read using a multifunctional microplate reader chemical light emitting module.
An inhibition rate was calculated by utilizing luminescence intensity of the above DMSO group (with DMSO added), test group (with the tested compound or a positive control solution added) and blank group (not treating cells), and a calculation formula was as follows: […]
Using a logarithm of the concentration as an X axis and the percentage inhibition rate as a Y axis, a dose-response curve was fitted using a formula log(inhibitor) vs. response-Variable slope (Four parameters) of analysis software Graphpad Prism 8 to obtain the IC50 value of each compound on Kasumi-1 proliferation inhibition activity.
Background: Cellular ATP, detected with luciferase, serves as a proxy for viable cell number.

Series [1] in a line: Pharmacokinetics of oral and intravenous administration of rats. As to conditions: male, rat, plasma, SD rats; for bioavailability: oral, p.o. 5.0 mg/kg vs i.v. 5.0 mg/kg, read-out: F (bioavailability). The format is in vivo. Here is the method:
With SD rats as tested animals, blood drug concentrations of the compounds of the present application in plasma at different moments after oral administration and intravenous administration to the rats were determined using an LC-MS/MS method, pharmacokinetic parameters and bioavailabilities of the compounds of the present application in the rats were obtained, and pharmacokinetic characteristics of the compounds were studied.
• SD rats, male, weight 180-220 g, 3 rats per group. The animals were fed in an animal house after being purchased, an adaptation period was at least 3 days, and they were used for tests after passing quarantine.
3.2. Solvent: p.o.: 0.5% Sodium Methylcellulose Aqueous Solution
• i.v.: 5% DMSO+10% Solutol+85% Saline
According to Table 6, each group of rats was given the corresponding tested drugs or positive drugs by gavage, before administration, and 5 min, 15 min, 30 min, 1 h, 2 h, 4 h, 6 h, 8 h, 10 h and 24 h after administration, a fixed volume of blood was collected through eye sockets and placed in an EDTA-K2 anticoagulant tube, centrifuging was carried out at 8000 rpm for 1 min to separate plasma into a centrifuge tube, and the plasma was frozen in a −20° C. refrigerator.
(§1) The plasma at each time point stored at −20° C. was taken out, then acetonitrile was added, after whirling at 1500 revolutions for 2 min, centrifuging was carried out for 15 min (3500 r/min), and a fixed volume of solution supernatant was taken for LC-MS/MS analysis.
(§2) Non-compartment model fitting was carried out on pharmacokinetic behaviors of the tested compounds, and DAS3.31 software was adopted to calculate main pharmacokinetic parameters (T1/2, Tmax, Cmax, AUClast, etc.).

Series [2] in a line: Pharmacokinetics of oral administration of mice under different solvent conditions. In kind it is in vivo. To be noted: male, Balb/c, mouse, plasma, 5 mg/kg, p.o. 5.0 mg/kg. Here is the method:
With Balb/c mice as tested animals, blood drug concentrations of the compounds of the present application in plasma at different moments after administration of the mice under different solvent conditions were determined using an LC-MS/MS method. Pharmacokinetic parameters of the compounds of the present application in the mice under the different solvent conditions were obtained, and pharmacokinetic characteristics of the compounds were studied.
• Balb/c mice, male, weight 18-22 g, 6 mice per group. The animals were fed in an animal house after being purchased, an adaptation period was at least 3 days, and they were used for tests after passing quarantine.
According to Table 8, each group of mice was given the corresponding tested drugs or positive drugs by gavage, before administration, and 15 min, 30 min, 1 h, 2 h, 4 h, 6 h, 8 h, 10 h and 24 h after administration, a fixed volume of blood was collected through eye sockets and placed in an EDTA-K2 anticoagulant tube, centrifuging was carried out at 8000 rpm for 1 min to separate plasma into a centrifuge tube, and the plasma was frozen in a −20° C. refrigerator.
as §1, §2

Series [3] deals with Kasumi-1 cell subcutaneous heterograft tumor. Kind of series: In-vivo efficacy in Kasumi-1 cell subcutaneous heterograft tumor model. As to conditions: for weight of the mice after administration / tolerance of the tested animals: Kasumi-1 xenograft mice; for weight of the mice after administration: FIG. 3; for tolerance of the tested animals: qd p.o. 20 days; for TGI: Kasumi-1 xenograft, qd, p.o., 20 days. The protocol:
• RPMI 1640 culture medium containing 20% fetal bovine serum (FBS), 37° C., 5% CO2.
• Solvent: 0.5% methylcellulose aqueous solution; • Tested drug: compounds 16 and 36.
CB17 SCID mice, female, 6-8 weeks, weight about 18-22 grams, and each mouse was subcutaneously inoculated with 0.1 mL (1×10^7 cells+matrigel) of Kasumi-1 cells on the right side. When an average volume of tumors reached 100-200 cubic millimeters, group administration was performed, see the table below (Table 12) for administration dosages and methods. The tumor volume was measured twice a week, the weights of the mice as well as lengths and widths of tumors were recorded in each time of measurement, and the tumor volume=length×width×width/2 mm^3. When the average tumor volume of a solvent group grew to 3000 cubic millimeters or above, administration was ended, each group of mice was killed and dissected to take out tumor lumps, the tumor weight of each mouse was weighed and the tumor volume was measured, and an average tumor volume difference between a tested compound group and the solvent group was obtained via comparison. The tumor suppression effects of the compounds were evaluated with TGI (%), which could reflect a tumor growth inhibition rate.
Calculation of TGI (%):TGI (%)=[1−(current average tumor volume of compounds−average tumor volume at the beginning of compounds)/(current average tumor volume of solvent group−average tumor volume at the beginning of solvent group)]×100%

Where [4] appears, read: iv, i.v. 5.0 mg/kg, 5% DMSO+10% Solutol+85% Saline.
Where [5] appears, read: po, p.o. 5.0 mg/kg, 0.5% sodium methylcellulose aqueous solution.
[6] abbreviates: solvent 0.5% sodium methylcellulose aqueous solution.
[7] abbreviates: solvent 5% DMSO + 10% Solutol + 85% Saline.

One may read the IC50 as the concentration at which inhibition is half-maximal. As a reminder, the AUC(0-t) is exposure summed from dosing to a finite time, without extrapolation to infinity. As usually defined, the Cmax is the peak of the concentration-time curve. A word on the Tmax: it is the time at which the peak concentration occurs. For orientation: half-life means the time needed for the level to fall by half in the phase considered. What is called bioavailability is dose-corrected exposure relative to a reference, in per cent. In the series with Kasumi-1 cells, `COc1ccc(-c2c(-c3ccc(C#N)c(F)c3)nc(N3CCC(N)CC3)n(C)c2=O)cc1F` [CC-90011, reference compound] had an IC50 of 3.18 nM. For the same compound, the AUC(0-t) in series [1] (setting [4]) was determined as 906 ± 194 ng·h/mL; in series [1] (setting [5]), 299 ± 178 ng·h/mL; in series [2] (setting [6]) it was 965 ± 120 ng·h/mL; in series [2] (setting [7]) it was 871 ± 270 ng·h/mL. The Cmax in series [1] (setting [4]) is 895 ± 90.4 ng/mL; in series [1] (setting [5]) it was 49.2 ± 8.71 ng/mL; in series [2] (setting [7]), 173 ± 50.9 ng/mL. Besides, the Tmax in series [1] (setting [4]) was 0.08 h; in series [1] (setting [5]), 2.67 ± 1.15 h; in series [2] (setting [6]), 3.33 ± 1.15 h; in series [2] (setting [7]), 1 h. Also, the half-life in series [1] (setting [4]) was 199 ± 43.2 min; in series [1] (setting [5]), 249 ± 42 min; in series [2] (setting [6]), 300.6 ± 2.4 min; in series [2] (setting [7]), 146 ± 20.4 min. The bioavailability in series [1] came to 32.1%.
In general, TGI refers to how far tumour growth fell short of that in controls. The low end stands for little slowing of growth, the high end for much slowing of growth. With `CC(C)(O)Cn1ncc2cc(-c3c(C#N)cc(N4CCC(N)CC4)nc3-c3ccc(C#N)c(F)c3)c(F)cc21` [Compound 16, 6-(4-aminopiperid-1-yl)-2-(4-cyano-3-fluorophenyl)-3-(6-fluoro-1-(2-hydroxyl-2-methylpropyl)-1H-indazol-5-yl)isonicotinonitrile], in series [3], the “weight of the mice after administration” value is on record as “does not decrease” and the “tolerance of the tested animals” value is “good tolerance”. The same compound showed a TGI in series [3] (3.5 mg/Kg) of 78.28%. This compound showed a TGI in series [3] (5 mg/Kg) of 86.13%. Moreover, the half-inhibitory concentration (IC50) in the series with Kasumi-1 cells stood at 0.59 nM. In series [1] (setting [4]), the AUC(0-t) was 1490 ± 157 ng·h/mL, the Cmax turned out to be 765 ± 181 ng/mL, the Tmax was determined as 0.08 h and the half-life was 337 ± 77.4 min. Also, the bioavailability in series [1] came out at 46.2%. In addition, in series [1] (setting [5]), the AUC(0-t) was found to be 693 ± 248 ng·h/mL, the concentration peaked (Cmax) at 75.2 ± 20.3 ng/mL, the Tmax was 4 h and the half-life was 284 ± 13.2 min. Also, in series [2] (setting [6]), the AUC(0-t) came out at 3220 ± 1510 ng·h/mL, the highest level (Cmax) was 895 ± 499 ng/mL, the Tmax amounted to 3.33 ± 1.15 h and the half-life was 239 ± 35.4 min. Moreover, in series [2] (setting [7]), the exposure AUC(0-t) is 2420 ± 123 ng·h/mL, the Cmax was determined as 612 ± 111 ng/mL, the Tmax is 2.67 ± 1.15 h and the half-life is 331 ± 40.2 min.
As for `CC(C)(O)Cn1nc(F)c2cc(-c3c(C#N)cc(N4CCC(N)CC4)nc3-c3ccc(C#N)c(F)c3)c(F)cc21` [Compound 36, 6-(4-aminopiperid-1-yl)-2-(4-cyano-3-fluorophenyl)-3-(3,6-difluoro-1-(2-hydroxyl-2-methylpropyl)-1H-indazol-5-yl)isonicotinonitrile], in series [3], the “weight of the mice after administration” value is on record as “does not decrease” and the “tolerance of the tested animals” value is “good tolerance”. The compound also gave a TGI in series [3] (5 mg/Kg) of 84.87%.
